Source: patent publication US20130029928A1 (priority 2010, published 2013)
Like-named read-outs stand apart in the source and are kept apart here.

Test: Phase I study CXR1002-001: plasma pharmacokinetics (LC-MS/MS)
Assay type: in vivo, human
Conditions: human, plasma, oral; for concentration at 843 h / concentration at 844 h / concentration at 864 h / concentration at 3 h / concentration at 4 h / concentration at 24 h / concentration at 168 h / concentration at 170 h / concentration at 171 h / concentration at 192 h / concentration at 336 h / concentration at 338 h / concentration at 339 h / concentration at 340 h / concentration at 360 h / concentration at 504 h / concentration at 506 h / concentration at 507 h / concentration at 508 h / concentration at 528 h / concentration at 672 h / concentration at 674 h / concentration at 675 h / concentration at 676 h / concentration at 696 h / concentration at 840 h / concentration at 842 h / concentration at 2 h / concentration at 172 h: read-out: Concentration; for concentration at 864 h: 864 hr (Day 37); for concentration at 24 h: 24 hr (Day 2); for concentration at 168 h: 168 hr (Day 8); for concentration at 336 h: 336 hr (Day 15); for concentration at 504 h: 504 hr (Day 22); for concentration at 528 h: 528 hr (Day 23); for concentration at 672 h: 672 hr (Day 29); for concentration at 840 h: 840 hr (Day 36)
Description: PK samples, PD (fasting) samples, blood glucose, and blood triglyceride samples, were taken over a 6-week period.
Dose limiting toxicity (DLT) will be based on the toxicity assessments over the first 3-week period of the repeat dosing schedule. PK samples (single blood sample) were taken on the following basis: • Every 6 weeks during the repeat dosing phase • If dosing is interrupted or stopped, samples will be taken at intervals according to patient convenience • PK sampling for safety evaluation may take place at any time, as clinically indicated
Plasma samples were collected after the single 50 mg dose at the following timepoints: Pre-dose, and then 0.25, 0.5, 0.75, 1, 1.5, 2, 3, 4, 6, 24, 48, and 72 hours after administration and then once weekly at weeks 2, 3, 4, 5, and 6 (days 8, 15, 22, 29, and 36). For patients treated with the weekly repeat dose, plasma samples were collected at the following timepoints: Pre-dose and then 2, 3, 4 and 24 hours after administration for a total of 6 weeks. Thereafter a single sample was collected every 6 weeks for monitoring of exposure during long term treatment. Plasma samples were processed at site and stored at −80° C. prior to batch shipment to the analytical laboratory.

[1] = 300 mg, Patient 014 Dose 300 mg
[2] = 450 mg, Patient 015 Dose 450 mg
[3] = 450 mg, Patient 016 Dose 450 mg
[4] = 450 mg, Patient 017 Dose 450 mg
[5] = 600 mg, Patient 018, 600 mg, person
[6] = 600 mg, Patient 020, 600 mg, person
[7] = 600 mg, Patient 021, 600 mg, person

O=C(O)C(F)(F)C(F)(F)C(F)(F)C(F)(F)C(F)(F)C(F)(F)C(F)(F)F [CXR1002]
concentration at 843 h [1]: 520 µM
concentration at 844 h [1]: 563 µM
concentration at 864 h [1]: 488 µM
concentration at 12 week (300 mg, Patient 014 Dose 300 mg, Week 12): 890 µM
concentration at 18 week (300 mg, Patient 014 Dose 300 mg, Week 18): 980 µM
concentration at 3 h [2]: 231 µM
concentration at 4 h [2]: 217 µM
concentration at 24 h [2]: 126 µM
concentration at 168 h [2]: 138 µM
concentration at 170 h [2]: 325 µM
concentration at 171 h [2]: 314 µM
concentration at 192 h (450 mg, Patient 015 Dose 450 mg, 192 hr (Day 9)): 294 µM
concentration at 336 h [2]: 286 µM
concentration at 338 h [2]: 463 µM
concentration at 339 h [2]: 393 µM
concentration at 340 h [2]: 424 µM
concentration at 360 h (450 mg, Patient 015 Dose 450 mg, 360 hr (Day 16)): 412 µM
concentration at 504 h [2]: 387 µM
concentration at 506 h [2]: 579 µM
concentration at 507 h [2]: 548 µM
concentration at 508 h [2]: 513 µM
concentration at 528 h [2]: 551 µM
concentration at 672 h [2]: 544 µM
concentration at 674 h [2]: 622 µM
concentration at 675 h [2]: 633 µM
concentration at 676 h [2]: 675 µM
concentration at 696 h (450 mg, Patient 015 Dose 450 mg, 696 hr (Day 30)): 708 µM
concentration at 840 h [2]: 575 µM
concentration at 842 h [2]: 703 µM
concentration at 843 h [2]: 655 µM
concentration at 844 h [2]: 801 µM
concentration at 864 h [2]: 592 µM
concentration at 2 h [3]: 108 µM
concentration at 3 h [3]: 126 µM
concentration at 4 h [3]: 88.1 µM
concentration at 24 h [3]: 164 µM
concentration at 170 h [3]: 328 µM
concentration at 171 h [3]: 255 µM
concentration at 172 h [3]: 244 µM
concentration at 192 h (450 mg, Patient 016 Dose 450 mg, 192 hr (Day 9)): 348 µM
concentration at 336 h [3]: 287 µM
concentration at 338 h [3]: 418 µM
concentration at 339 h [3]: 454 µM
concentration at 340 h [3]: 442 µM
concentration at 360 h (450 mg, Patient 016 Dose 450 mg, 360 hr (Day 16)): 471 µM
concentration at 504 h [3]: 546 µM
concentration at 506 h [3]: 693 µM
concentration at 507 h [3]: 721 µM
concentration at 508 h [3]: 698 µM
concentration at 528 h [3]: 692 µM
concentration at 672 h [3]: 605 µM
concentration at 674 h [3]: 907 µM
concentration at 675 h [3]: 745 µM
concentration at 676 h [3]: 732 µM
concentration at 696 h (450 mg, Patient 016 Dose 450 mg, 696 hr (Day 30)): 871 µM
concentration at 2 h [4]: 99.7 µM
concentration at 3 h [4]: 136 µM
concentration at 4 h [4]: 163 µM
concentration at 336 h [4]: 216 µM
concentration at 338 h [4]: 325 µM
concentration at 339 h [4]: 342 µM
concentration at 360 h (450 mg, Patient 017 Dose 450 mg, 360 hr): 258 µM
concentration at 672 h [4]: 404 µM
concentration at 674 h [4]: 451 µM
concentration at 675 h [4]: 497 µM
concentration at 676 h [4]: 485 µM
concentration at 696 h (450 mg, Patient 017 Dose 450 mg, 696 hr): 483 µM
concentration at 2 h [5]: 339 µM
concentration at 3 h [5]: 280 µM
concentration at 4 h [5]: 248 µM
concentration at 24 h [5]: 213 µM
concentration at 168 h [5]: 181 µM
concentration at 170 h [5]: 398 µM
concentration at 171 h [5]: 407 µM
concentration at 192 h (600 mg, Patient 018, 600 mg, person, 192 hr (day 9)): 386 µM
concentration at 336 h [5]: 356 µM
concentration at 338 h [5]: 551 µM
concentration at 339 h [5]: 563 µM
concentration at 340 h [5]: 591 µM
concentration at 360 h (600 mg, Patient 018, 600 mg, person, 360 hr (Day 16)): 554 µM
concentration at 2 h [6]: 208 µM
concentration at 4 h [6]: 180 µM
concentration at 24 h [6]: 413 µM
concentration at 168 h [6]: 125 µM
concentration at 170 h [6]: 327 µM
concentration at 171 h [6]: 310 µM
concentration at 172 h [6]: 279 µM
concentration at 192 h (600 mg, Patient 020, 600 mg, person, 192 hr (day 9)): 268 µM
concentration at 336 h [6]: 272 µM
concentration at 338 h [6]: 474 µM
concentration at 339 h [6]: 434 µM
concentration at 340 h [6]: 438 µM
concentration at 360 h (600 mg, Patient 020, 600 mg, person, 360 hr (Day 16)): 410 µM
concentration at 504 h [6]: 441 µM
concentration at 506 h [6]: 477 µM
concentration at 507 h [6]: 526 µM
concentration at 508 h [6]: 536 µM
concentration at 528 h [6]: 563 µM
concentration at 672 h [6]: 540 µM
concentration at 674 h [6]: 547 µM
concentration at 675 h [6]: 603 µM
concentration at 676 h [6]: 652 µM
concentration at 696 h (600 mg, Patient 020, 600 mg, person, 696 hr (Day 30)): 615 µM
concentration at 840 h [6]: 582 µM
concentration at 842 h [6]: 700 µM
concentration at 843 h [6]: 764 µM
concentration at 844 h [6]: 770 µM
concentration at 864 h [6]: 703 µM
concentration at 2 h [7]: 77.2 µM
concentration at 3 h [7]: 121 µM
concentration at 24 h [7]: 203 µM
concentration at 168 h [7]: 218 µM
concentration at 170 h [7]: 504 µM
concentration at 171 h [7]: 417 µM
concentration at 172 h [7]: 451 µM
